Measurements from patent publication EP3095787A1, “[…] ACTIVE COMPOUNDS AS DAG-LIPASE INHIBITORS” (Universiteit Leiden, priority 2015, dated 2016).
pIC50: −log10 of the molar value. Entries after “also recorded” stand apart in the source; their conditions may differ.

How the values were obtained:
[1] = biological target: FAAH; conditions: reported value; cited from earlier work
[2] = biological target: T1, hDAGL-β (Homo sapiens, UniProt Q8NCG7); assay: Biochemical assay with para-nitrophenylbutyrate as surrogate substrate on human DAGL-β; conditions: n=4
T1 sequence (Q8NCG7 1-672): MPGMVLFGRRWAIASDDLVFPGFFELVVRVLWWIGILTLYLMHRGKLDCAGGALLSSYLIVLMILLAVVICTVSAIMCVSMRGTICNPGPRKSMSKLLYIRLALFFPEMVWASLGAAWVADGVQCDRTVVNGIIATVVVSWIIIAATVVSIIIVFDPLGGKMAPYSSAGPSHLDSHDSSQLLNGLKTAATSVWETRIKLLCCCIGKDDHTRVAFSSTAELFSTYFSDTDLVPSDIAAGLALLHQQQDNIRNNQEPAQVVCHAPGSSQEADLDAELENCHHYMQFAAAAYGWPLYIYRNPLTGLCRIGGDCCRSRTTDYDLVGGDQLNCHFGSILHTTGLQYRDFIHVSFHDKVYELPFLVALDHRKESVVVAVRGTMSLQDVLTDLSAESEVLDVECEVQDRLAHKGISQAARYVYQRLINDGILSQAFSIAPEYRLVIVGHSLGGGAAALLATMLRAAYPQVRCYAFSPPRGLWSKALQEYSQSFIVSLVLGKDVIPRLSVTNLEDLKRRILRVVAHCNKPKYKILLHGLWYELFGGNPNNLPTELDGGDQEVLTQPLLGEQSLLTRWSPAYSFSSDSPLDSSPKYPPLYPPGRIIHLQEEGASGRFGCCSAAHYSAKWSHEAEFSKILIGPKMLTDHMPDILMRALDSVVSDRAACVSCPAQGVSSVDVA

[3] = biological target: T2, DAGL-α (Mus musculus, UniProt Q6WQJ1); assay: Competitive ABPP with MB064 on endogenous DAGL-α in mouse brain membrane proteome; format: biochemical; conditions: MB064 250 nM, n=3, read-out: pIC50 of DAGL-α labeling by MB064 (converted)
T2 construct: endogenously expressed DAGL-α in mouse membrane proteome; from tissue; host or cells: mouse brain membrane proteome
T2 sequence (Q6WQJ1 1-1044): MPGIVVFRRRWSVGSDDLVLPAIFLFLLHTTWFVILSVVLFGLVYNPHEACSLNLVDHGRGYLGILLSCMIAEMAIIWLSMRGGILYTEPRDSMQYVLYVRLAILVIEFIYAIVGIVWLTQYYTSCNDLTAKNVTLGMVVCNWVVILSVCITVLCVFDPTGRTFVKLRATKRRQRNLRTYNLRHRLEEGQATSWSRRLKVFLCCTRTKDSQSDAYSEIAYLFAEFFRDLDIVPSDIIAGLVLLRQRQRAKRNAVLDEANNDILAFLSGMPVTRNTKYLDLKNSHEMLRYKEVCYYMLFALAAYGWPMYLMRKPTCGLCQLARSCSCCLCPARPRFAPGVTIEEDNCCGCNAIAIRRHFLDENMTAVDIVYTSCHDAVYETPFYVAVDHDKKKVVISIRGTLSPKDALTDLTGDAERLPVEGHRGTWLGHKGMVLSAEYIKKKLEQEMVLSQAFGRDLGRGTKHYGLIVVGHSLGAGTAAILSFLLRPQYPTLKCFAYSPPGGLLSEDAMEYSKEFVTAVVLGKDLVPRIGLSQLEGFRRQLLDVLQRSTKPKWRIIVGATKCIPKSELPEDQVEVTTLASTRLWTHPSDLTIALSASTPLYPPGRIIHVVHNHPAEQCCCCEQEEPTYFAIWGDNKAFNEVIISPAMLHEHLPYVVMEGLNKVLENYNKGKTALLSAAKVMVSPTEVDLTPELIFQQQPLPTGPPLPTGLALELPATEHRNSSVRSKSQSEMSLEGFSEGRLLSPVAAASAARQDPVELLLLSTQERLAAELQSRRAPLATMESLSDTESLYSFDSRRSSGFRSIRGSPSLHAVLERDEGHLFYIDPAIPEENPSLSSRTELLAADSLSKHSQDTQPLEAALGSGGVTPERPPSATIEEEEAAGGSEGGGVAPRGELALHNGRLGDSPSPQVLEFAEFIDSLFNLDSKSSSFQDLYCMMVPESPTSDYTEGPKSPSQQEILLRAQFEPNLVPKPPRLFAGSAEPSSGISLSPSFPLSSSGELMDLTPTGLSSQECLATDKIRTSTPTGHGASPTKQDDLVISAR
Excerpt: To test its activity on endogenously expressed DAGL-α in mouse membrane proteome, an ABPP assay with MB064, a specific β-lactone-containing probe, which was tailor-made for the detection of DAGL-α activity, was used. An alkyne group was introduced in the prototypical DAGL-inhibitor tetrahydrolipstatin (THL) and conjugated this covalent, irreversible inhibitor via copper-catalyzed click chemistry to a BODIPY-acid as a fluorencent reporter group to yield tailor-made probe MB064.

[4] = biological target: T3, DAGL-β (Mus musculus, UniProt Q91WC9); assay: Competitive ABPP with MB064 in mouse spleen membrane proteome; format: biochemical; conditions: 10 µM compound, MB064 1.0 µM
T3 construct: from tissue; host or cells: mouse spleen membrane proteome
T3 sequence (Q91WC9 1-669): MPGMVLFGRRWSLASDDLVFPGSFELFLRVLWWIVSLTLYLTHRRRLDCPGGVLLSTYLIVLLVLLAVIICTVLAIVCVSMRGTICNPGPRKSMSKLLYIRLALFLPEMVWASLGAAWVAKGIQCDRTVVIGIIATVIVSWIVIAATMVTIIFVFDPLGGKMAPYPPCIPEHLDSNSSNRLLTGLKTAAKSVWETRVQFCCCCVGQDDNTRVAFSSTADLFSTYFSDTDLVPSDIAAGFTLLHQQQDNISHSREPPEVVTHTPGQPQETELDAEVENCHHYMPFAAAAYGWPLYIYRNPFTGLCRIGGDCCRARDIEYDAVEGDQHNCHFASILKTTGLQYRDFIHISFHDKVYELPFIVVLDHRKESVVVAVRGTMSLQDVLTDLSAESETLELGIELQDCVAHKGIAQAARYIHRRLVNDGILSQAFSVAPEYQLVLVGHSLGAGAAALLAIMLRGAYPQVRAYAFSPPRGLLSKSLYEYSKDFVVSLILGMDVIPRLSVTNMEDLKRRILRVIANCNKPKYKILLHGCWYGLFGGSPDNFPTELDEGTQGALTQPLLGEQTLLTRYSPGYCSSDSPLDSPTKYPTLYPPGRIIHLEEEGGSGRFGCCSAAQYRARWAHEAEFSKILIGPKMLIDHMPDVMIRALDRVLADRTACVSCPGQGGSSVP

| Structure (SMILES) | FAAH Activity assay reported pKi [1] | pIC50 [2] | IC50 [3] [nM] | Native DAGL-β activity (labeling by MB064) [4] |
| --- | --- | --- | --- | --- |
| O=C(CCCCCc1ccccc1)c1nc2ncccc2o1 [Compound 1, 1-(Oxazolo[4,5-b]pyridin-2-yl)-6-phenylhexan-1-one, reference compound] | 9.70 | – | – | – |
| Cc1ccc(-c2cnc3nc(C(=O)CCCCCc4ccccc4)oc3c2)cc1 [Compound 25, 1-(6-(p-Tolyl)oxazolo[4,5-b]pyridin-2-yl)-6-phenylhexan-1-one] | – | 8.10 | 31.6 | can block labeling of endogenously expressed DAGL-β; also recorded: could also be inhibited |
